Numbers after ± are expanded uncertainties.
How the values were obtained:
[1] = 298.15 K; 101.33 kPa; Liquid
[2] = refractive index (Na D-line) (dimensionless); conditions: 298.15 K; 101.33 kPa; Liquid; Standard Abbe refractometry

Row | SMILES | mass density [1] [kg/m3] | refractive index [2]
1 | CCO [ethanol] | 785.12 ± 0.31 | 1.3593 ± 0.0007
2 | C=CC(C)(O)CCC=C(C)C (stereo not given) [3,7-dimethyl-1,6-octadien-3-ol] | 858.08 ± 2.2 | 1.4595 ± 0.0009
3 | O [water] |  | 1.3325 ± 0.0008
